According to PMC7181660, “A novel specific PERK activator reduces toxicity and extends survival in Huntington's disease models” (Scientific Reports, 2020):
Where two headings read alike, the source gives them in different places.

Columns and labels:
Experiment in all cases: biochemical
Type in all cases: biochemical
[1] = target: panel of 391 kinases (Homo sapiens, UniProt O60285); details: ARK5/NUAK1, MK-28 1 µM, ATP 1 µM
[2] = target: panel of 391 kinases (Homo sapiens, UniProt O60674); details: JAK2, MK-28 1 µM, ATP 1 µM
[3] = target: panel of 391 kinases (Homo sapiens, UniProt O95819); details: HGK/MAP4K4, MK-28 1 µM, ATP 1 µM
[4] = target: panel of 391 kinases (Homo sapiens, UniProt P24723); details: PKCeta, MK-28 1 µM, ATP 1 µM
[5] = target: panel of 391 kinases (Homo sapiens, UniProt P37023); details: ALK1/ACVRL1, MK-28 1 µM, ATP 1 µM
[6] = target: panel of 391 kinases (Homo sapiens, UniProt P41743); details: PKCiota, MK-28 1 µM, ATP 1 µM
[7] = target: panel of 391 kinases (Homo sapiens, UniProt P46734); details: MEK3, MK-28 1 µM, ATP 1 µM
[8] = target: panel of 391 kinases (Homo sapiens, UniProt P49760); details: CLK2, MK-28 1 µM, ATP 1 µM
[9] = target: panel of 391 kinases (Homo sapiens, UniProt P50750); details: MK-28 1 µM, ATP 1 µM; for remaining activity at 1 µM: read-out: % Enzyme Activity (relative to DMSO controls)
[10] = target: panel of 391 kinases (Homo sapiens, UniProt P54760); details: EPHB4; MK-28 1 µM; ATP 1 µM; read-out: % Enzyme Activity (relative to DMSO controls)
[11] = target: panel of 391 kinases (Homo sapiens, UniProt P54762); details: EPHB1, MK-28 1 µM, ATP 1 µM
[12] = target: panel of 391 kinases (Homo sapiens, UniProt P78527); details: kinase DNA-PK, compound at 1 µM, single dose in duplicates, 1 µM ATP
[13] = target: panel of 391 kinases (Homo sapiens, UniProt Q00536); details: CDK16/cyclin Y (PCTAIRE), MK-28 1 µM, ATP 1 µM
[14] = target: panel of 391 kinases (Homo sapiens, UniProt Q04912); details: RON/MST1R, MK-28 1 µM, ATP 1 µM
[15] = target: panel of 391 kinases (Homo sapiens, UniProt Q13164); details: ERK5/MAPK7, MK-28 1 µM, ATP 1 µM
[16] = target: panel of 391 kinases (Homo sapiens, UniProt Q13557); details: CAMK2d, MK-28 1 µM, ATP 1 µM
[17] = target: panel of 391 kinases (Homo sapiens, UniProt Q6DT37); details: DMPK2, MK-28 1 µM, ATP 1 µM
[18] = target: panel of 391 kinases (Homo sapiens, UniProt Q6IQ55); details: TTBK2, MK-28 1 µM, ATP 1 µM
[19] = target: panel of 391 kinases (Homo sapiens, UniProt Q8IVH8); details: GLK/MAP4K3, MK-28 1 µM, ATP 1 µM
[20] = target: panel of 391 kinases (Homo sapiens, UniProt Q8NE63); details: HIPK4, MK-28 1 µM, ATP 1 µM
[21] = target: panel of 391 kinases (Homo sapiens, UniProt Q96L34); details: MARK4, MK-28 1 µM, ATP 1 µM
[22] = target: panel of 391 kinases (Homo sapiens, UniProt Q96S53); details: TESK2, MK-28 1 µM, ATP 1 µM
[23] = target: panel of 391 kinases (Homo sapiens, UniProt Q9BXA6); details: SSTK/TSSK6, MK-28 1 µM, ATP 1 µM
[24] = target: panel of 391 kinases (Homo sapiens, UniProt Q9BYT3); details: STK33, MK-28 1 µM, ATP 1 µM
[25] = target: panel of 391 kinases (Homo sapiens, UniProt Q9H422); details: HIPK3, MK-28 1 µM, ATP 1 µM
[26] = target: panel of 391 kinases (Homo sapiens, UniProt Q9NWZ3); details: IRAK4, MK-28 1 µM, ATP 1 µM
[27] = read-out: % Enzyme Activity (relative to DMSO controls)

With CN(/N=C\c1ccc(O)c(O)c1)c1nc(-c2ccccc2)cc(-c2ccccc2)n1 [MK-28] the “% Enzyme Activity (relative to DMSO controls)” value [1] was 91.19%, the remaining activity at 1 µM [1, 27] was 93.8% and the “% Enzyme Activity (relative to DMSO controls)” value [2] was 91.77%. For the same compound, the remaining activity at 1 µM [2, 27] was 93.8%, the “% Enzyme Activity (relative to DMSO controls)” value [3] was 95.38% and the remaining activity at 1 µM [3, 27] was 102%. The “% Enzyme Activity (relative to DMSO controls)” value [4] was 98.39%, the remaining activity at 1 µM [4, 27] was 101% and the “% Enzyme Activity (relative to DMSO controls)” value [5] was 91.36%. For the same compound, the remaining activity at 1 µM [5, 27] was 94.7%, the “% Enzyme Activity (relative to DMSO controls)” value [6] was 105.00% and the remaining activity at 1 µM [6, 27] was 105%. For the same compound, the “% Enzyme Activity (relative to DMSO controls)” value [7] was 88.71%, the remaining activity at 1 µM [7, 27] was 96.2% and the “% Enzyme Activity (relative to DMSO controls)” value [8] was 103.52%. The remaining activity at 1 µM [8, 27] was 108%, the “% Enzyme Activity (relative to DMSO controls)” value ([9]; CDK9/cyclin K) was 95.35% and the remaining activity at 1 µM ([9]; CDK9/cyclin K) was 96.1%. For the same compound, the “% Enzyme Activity (relative to DMSO controls)” value ([9]; CDK9/cyclin T1) was 83.98%, the remaining activity at 1 µM ([9]; CDK9/cyclin T1) was 84.2% and the “% Enzyme Activity (relative to DMSO controls)” value ([9]; CDK9/cyclin T2) was 97.55%. The remaining activity at 1 µM ([9]; CDK9/cyclin T2) was 103%, the remaining activity at 1 µM [10] was 92.8% and the “% Enzyme Activity (relative to DMSO controls)” value [11] was 96.23%. For the same compound, the remaining activity at 1 µM [11, 27] was 98.1%, the “% Enzyme Activity (relative to DMSO controls)” value [12] was 102.10% and the remaining activity at 1 µM [12, 27] was 103%. The “% Enzyme Activity (relative to DMSO controls)” value [13] was 113.27%, the remaining activity at 1 µM [13, 27] was 119% and the “% Enzyme Activity (relative to DMSO controls)” value [14] was 102.49%. For the same compound, the remaining activity at 1 µM [14, 27] was 104%, the “% Enzyme Activity (relative to DMSO controls)” value [15] was 118.22% and the remaining activity at 1 µM [15, 27] was 119%. For the same compound, the “% Enzyme Activity (relative to DMSO controls)” value [16] was 94.06%, the remaining activity at 1 µM [16, 27] was 94.2% and the “% Enzyme Activity (relative to DMSO controls)” value [17] was 101.16%. For the same compound, the remaining activity at 1 µM [17, 27] was 106%, the “% Enzyme Activity (relative to DMSO controls)” value [18] was 97.38% and the remaining activity at 1 µM [18, 27] was 98.9%. For the same compound, the “% Enzyme Activity (relative to DMSO controls)” value [19] was 94.50%, the remaining activity at 1 µM [19, 27] was 95.9% and the “% Enzyme Activity (relative to DMSO controls)” value [20] was 97.91%. The remaining activity at 1 µM [20, 27] was 98.4%, the “% Enzyme Activity (relative to DMSO controls)” value [21] was 96.24% and the remaining activity at 1 µM [21, 27] was 99.8%. The “% Enzyme Activity (relative to DMSO controls)” value [22] was 99.48%, the remaining activity at 1 µM [22, 27] was 101% and the “% Enzyme Activity (relative to DMSO controls)” value [23] was 97.30%. For the same compound, the remaining activity at 1 µM [23, 27] was 97.6%, the “% Enzyme Activity (relative to DMSO controls)” value [24] was 91.70% and the remaining activity at 1 µM [24, 27] was 95.4%. The “% Enzyme Activity (relative to DMSO controls)” value [25] was 104.43%, the remaining activity at 1 µM [25, 27] was 105% and the “% Enzyme Activity (relative to DMSO controls)” value [26] was 124.00%. The remaining activity at 1 µM [26, 27] was 129%.
